Results published in US10240154B2, “RNA products and uses thereof” (IFOM Fondazione Istituto FIRC di Oncologia Molecolare, priority 2012, dated 2019).

Columns and labels:
[1] = test system: NIH2/4 cells; assay: Short RNA sequencing of NIH2/4 cells after Dicer or Drosha knockdown by shRNA; assay type: cell-based, mouse; conditions: for miRNA expression (spike-normalized reads mapping to miRBase): NIH2/4, cut and uncut, compared to wildtype; for fraction of 22-23 nt vs total short RNAs at the locus: NIH2/4, uncut and cut conditions
Description: Nuclei were isolated the day after the adenoviral infection.
Nuclear RNA shorter than 200 nt was purified using mirVana™ microRNA Isolation Kit. RNA quality was checked on a small RNA chip (Agilent) before library preparation (Supplementary FIG. 23a). For Illumina hi Seq Version3 sequencing, spike RNA was added to each RNA sample in the RNA:spike ratio of 10,000:1 before library preparation and libraries for Illumina GA IIX were prepared without spike. An improved short RNA library preparation protocol was used to prepare libraries^68. In brief, adenylated 3′ adapters were ligated to 3′ ends of 3′-OH short RNAs using a truncated RNA ligase enzyme followed by 5′ adapter ligation to 5′-monophosphate ends using RNA ligase enzyme, ensuring specific ligation of undegraded short RNAs. cDNA was prepared using a primer specific to the 3′ adapter in the presence of Dimer eliminator and amplified for 12-15 PCR cycles using a special forward primer targeting the 5′ adapter containing additional sequence for sequencing and a reverse primer targeting the 3′ adapter. The amplified cDNA library was run on a 6% polyacrylamide gel and the 100 bp band containing cDNAs up to 33 nt was extracted using standard extraction protocols. Libraries were sequenced after quality check on a DNA high sensitivity chip (Agilent). Multiplexed barcode sequencing was performed on Illumina GA-IIX (35 bp Single end reads) and Illumina Hi seq version3 (51 bp single end reads). Sequences of all the DDRNAs identified in this study will be available for free downloading by the time of publication at short read archive.
Statistical significance of downregulation of normalized miRNAs in Dicer and Drosha knockdown samples were calculated using the Wilcoxon signed-rank test.
The differences in the fraction of 22-23 nt vs total short RNAs at the locus between the wildtype, Dicer knockdown, and Drosha knockdown before and after cut was calculated by fitting a negative binomial model to the sRNA count data and performing a likelihood ratio test, keeping the fraction of 22-23 nt vs total short RNAs at the locus fixed across conditions under the null hypothesis and allowing it to vary between conditions under the alternative hypothesis.

[2] = test system: Dicer; conditions: RNA with aptamer-binding site for paromomycin; according to the amount of ligand; cited from earlier work
[3] = test system: HeLa cells; assay: DDR foci formation in the RNase A in vitro cell system with translation inhibitor; assay type: cell-based, human; conditions: data not shown
Description: (§1) Cells were plated on poly-D-lysinated coverslips and irradiated with 2Gy of IR. 1 h after HeLa cells were permeabilized with 2% Tween 20 in PBS for 10 minutes at RT while I-Sce I-transfected NIH2/4 cells were permeabilized in 0.5% Tween 20 in PBS for 10 minutes at RT. RNase A treatment was carried out in 1 ml of 1 mg/ml Ribonuclease A from bovine pancreas (Sigma-Aldrich cat n: R5503) in PBS for 25 minutes at room temperature. After RNase A digestion, the samples were washed with PBS, treated with 80 units of RNase inhibitor (RNaseOUT Invitrogen 40 units/μl) and 2 μg/ml of α-amanitin (SIGMA) for 15 minutes in a total volume of 70 μl. […] Then, RNase A-treated cells were incubated with total, small or gel extracted RNA, or the same amount of tRNA, for additional 15 minutes at room temperature. […] Cell were then fixed with 4% paraformaldehyde or methanol:acetone 1:1.

[4] = test system: DDRNAs with telomeric sequence; assay: LNA transfection, BrdU incorporation after telomere uncapping in T19 fibrosarcoma cells; assay type: cell-based, human; conditions: LNA 200 nM, 3 days following LNA transfection
Description: (§2) (for the experiments in FIGS. 35-36). T19 fibrosarcoma cells (van Steensel, Cell 1998) were grown in DMEM supplemented with 10% fetal bovine serum, 1% glutamine and doxycycline (100 ng/ml). For induction, cells were grown without doxycycline for at least 7-8 days. CRE-ER TRF2^flox/flow MEFs (Lazzerini Denchi and de Lange, Nature 2007) were grown in DMEM supplemented with 10% fetal bovine serum and 1% glutamine. For induction, cells were grown in presence of 4-hydroxytamoxifen (600 nM) for 48 hours. For BrdU incorporation, cells were labeled with 10 μg/ml bromodeoxyuridine (BrdU, Sigma) for 16 hours and incorporation was evaluated by immunofluorescence after DNA denaturation.
(§3) (for the experiments in FIG. 36). LNA were first boiled at 90° C. for 5 minutes, chilled at 4° C. for 5 minutes and transfected with Lipofectamine RNAiMAX (Invitrogen) at the final concentration of 200 nM.

[5] = test system: DDRNAs with telomeric sequence; assay: LNA transfection, 53BP1 foci after telomere uncapping in T19 fibrosarcoma cells; assay type: cell-based, human
Description: as §2
(§4) (for the experiments in FIGS. 35-36). Cells were fixed with 1:1 methanol/acetone solution for 2 minutes at room temperature, or 4% paraformaldehyde for 10 minutes at room temperature. After blocking, cells were stained with primary antibodies for 1 h at room temperature, washed and incubated with conjugated secondary antibodies for 40 minutes at RT. Nuclei were stained with DAPI (1 μg/ml).
as §3

[6] = test system: HEK293 cells; assay: G2/M checkpoint assay in HEK293 cells after shRNA knockdown; assay type: cell-based, human; conditions: HEK293, 12, 24 and 36 hours post irradiation (5Gy)
Description: HEK 293 calcium phosphate transfected cells were irradiated with 5Gy and allowed to respond to IR-induced DNA damage in a cell culture incubator for 12, 24 or 36 hours. Then, at these three time points post irradiation, together with not irradiated cells, 1×10^6 cells were collected for Fluorescence Activated Cell Sorting (FACS) analysis, fixed in 75% ethanol in PBS, 30 minutes on ice. Afterwards, cells were treated 12 hours with 40 μg/ml of RNase A and incubated at least 1 h with propidium iodide (PI). FACS profiles were obtained by the analysis of at least 5×10^5 cells. In the complementation experiments HEK 293 were transfected using Lipofectamine RNAi Max (Invitrogen) and 48 hours later irradiated with 5Gy. Cells were then treated as explained above.

[7] = target: T1, RNA polymerase II (Mus musculus, UniProt P08775); assay: 53BP1 focus reformation at the I-Sce I-induced DSB in RNase A-treated NIH2/4 cells; assay type: cell-based; conditions: data not shown
T1 construct: endogenous in cells; host or cells: NIH2/4 mouse cells
Description: as §1

[8] = target: T2, RNA polymerase II (Homo sapiens, UniProt P24928); assay: Spontaneous 53BP1 foci reformation after RNase A treatment in irradiated HeLa cells; assay type: cell-based; conditions: irradiated (2Gy) HeLa, RNase A then RNaseOUT, with α-amanitin for 10 or 45 minutes
T2 construct: endogenous in cells; host or cells: HeLa
Description: as §1, with “After RNase A digestion, the samples were washed with PBS, treated with 80 units of RNase inhibitor (RNaseOUT Invitrogen 40 units/μl) and 2 μg/ml of α-amanitin (SIGMA) for 15 minutes in a total volume of 70 μl.” left out

[9] = test system: NIH2/4 cells; assay: RNase A treatment of I-Sce I cut NIH2/4 cells, foci colocalizing with Cherry-Lac; assay type: cell-based, mouse
Description: as §1

[10] = test system: HeLa cells; assay: RNase A treatment of irradiated permeabilized HeLa cells, DDR foci; assay type: cell-based, human; conditions: irradiated HeLa cells (2Gy), RNase A 1 mg/ml
Description: as §1

[11] = test system: TRF2^flox/flox MEFs; assay: RNase A treatment of TRF2 knockout MEFs with uncapped telomeres; assay type: cell-based, mouse; conditions: RNase A vs BSA
Description: as §2, §4
(for the experiments in FIG. 35). CRE-ER TRF2^flox/flox MEFs (Lazzerini Denchi and de Lange, Nature 2007) were induced to generate TRF2 knockout and telomere uncapping. 48 hours later cells were permeabilized with 0.6% Tween 20 in PBS for 15 min at room temperature.

[12] = Flag+ T19 cells, BrdU 16 hours, compared to Cntrl LNA
[13] = induced (Flag+) T19 cells, LNA 200 nM transfected at day 13 from induction, compared to control LNA
[14] = uninduced (Flag−) T19 cells, LNA 200 nM

Molecule: shDrosha: shRNA for mouse Drosha, SEQ ID NO:4, lentiviral pLKO.1 (CCGGCCTGGAATATGTCCACACTTTCTCGAGAAAGTGTGGACATATTCCAGGTTTTTG)
- miRNA expression (spike-normalized reads mapping to miRBase) [1]: significantly lower expressed
- fraction of 22-23 nt vs total short RNAs at the locus [1]: decreases

Molecule: NC[C@@H]1O[C@H](O[C@H]2[C@@H](O)[C@H](O[C@@H]3[C@@H](O)[C@H](N)C[C@H](N)[C@H]3O[C@H]3O[C@H](CO)[C@@H](O)[C@H](O)[C@H]3N)O[C@@H]2CO)[C@H](N)[C@@H](O)[C@@H]1O [paromomycin]
- Dicer activity [2]: decrease of Dicer activity

Molecule: shDicer: shRNA for mouse Dicer, SEQ ID NO:3, lentiviral pLKO.1 (CCGGGCCTCACTTGACCTGAAGTATCTCGAGATACTTCAGGTCAAGTGAGGCTTTTT)
- miRNA expression (spike-normalized reads mapping to miRBase) [1]: significantly lower expressed
- fraction of 22-23 nt vs total short RNAs at the locus [1]: decreases

Molecule: C[C@@H]1C[C@@H]([C@H](O)CC2CC(=O)NC(=O)C2)C(=O)[C@@H](C)C1 [cyclohexamide]
- DDR foci formation [3]: no impact on DDR foci formation

Molecule: LNA 6: LNA, SEQ ID NO: 62, GGGTTAGGGTTAGGGTTAGGG; sense telomeric sequence (LNA)
- percentage of BrdU-positive cells [4, 12]: significant increase
- percentage of BrdU-positive cells ([4]; Flag− T19 cells): no difference is observed
- 53BP1 foci-positive cells [5, 13]: decrease in DDR-positive cells
- 53BP1 foci-positive cells [5, 14]: no difference was observed

Molecule: LNA 5: LNA, SEQ ID NO: 61, CCCTAACCCTAACCCTAACCC; antisense telomeric sequence; control in FIG. 34
- percentage of BrdU-positive cells [4, 12]: significant increase
- percentage of BrdU-positive cells ([4]; Flag− T19 cells): no difference is observed
- 53BP1 foci-positive cells [5, 13]: decrease in DDR-positive cells
- 53BP1 foci-positive cells [5, 14]: no difference was observed

Molecule: LNA 3: LNA, SEQ ID NO: 59, ACTGATAGGGAGTGGTAAACT; unrelated control in FIG. 36 (LNA-modified oligonucleotide, LNA positions not given here)
- 53BP1 foci-positive cells [5, 13]: no effect

Molecule: shRNA against p53: pRETROSUPER shp53, short hairpin SEQ ID NO:2 (guide AGTAGATTACCACTGGAGTCTT)
- G2/M checkpoint (FACS cell-cycle profile) [6]: did not arrest upon DNA damage

Molecule: α-amanitin
- 53BP1 focus reformation at the I-Sce I-induced DSB [7]: prevents 53BP1 focus reformation
- 53BP1-foci reformation [8]: prevents 53BP1-foci reformation

B1: RNase A: Ribonuclease A from bovine pancreas (Sigma-Aldrich R5503), broad-specificity RNA nuclease (protein, UniProt P61823 27-150, looked up)
Ribonuclease pancreatic: KETAAAKFERQHMDSSTSAASSSNYCNQMMKSRNLTKDRCKPVNTFVHESLADVQAVCSQKNVACKNGQTNCYQSYSTMSITDCRETGSSKYPNCAYKTTQANKHIIVACEGNPYVPVHFDASV
- 53BP1, pATM and MRE11 foci colocalizing with the Cherry-Lac focus [9]: lost
- 53BP1, pATM, pS/TQ and MDC1 foci [10]: strongly reduced
- γH2AX accumulation [10]: only slightly affected
- 53BP1 foci [11]: disassemble
- γH2AX foci [11]: stable
